According to paper PMC6271701, “An Unusual 2,3-Secotaraxerene and Other Cytotoxic Triterpenoids from Pleiocarpa pycnantha (Apocynaceae) Leaves Collected from Nigeria” (Molecules, 2014):

Experiments:
[1] = test system: MCF-7 breast tumour cell line; conditions: read-out: GI50 MCF-7; in vitro; cited from earlier work
[2] = test system: ME 180 cervical tumour cell line; conditions: read-out: GI50 ME 180; in vitro; cited from earlier work
[3] = test system: PC3 prostate tumour cell line; conditions: read-out: GI50 PC3; in vitro; cited from earlier work
KMST-6 cells = assay: WST-1 cytotoxicity assay, non-cancerous KMST-6 fibroblasts; assay type: cell-based, human; conditions: WST-1 assay; for IC50: 24 h treatment, non-cancerous fibroblast
Procedure: (§1) HeLa, HT-29, MCF-7 and KMST-6 cells were prepared from our laboratory stocks. Briefly, cell monolayers were maintained in Dulbecco’s modified Eagle’s (DMEM, Lonza Group Ltd., Base, Switzerland) medium with phenol red supplemented with 10% foetal bovine serum (FBS, Biochrom AG, Berlin, Germany) and 1% Penicillin–streptomycin (Lonza Group Ltd.). All cells were maintained in a humidified incubated at 37 °C in an atmosphere of 5% CO2. The cells were harvested using trypsin (Lonza Group Ltd.), and viable cell concentrations were determined using the Countess® Automated Cell Counter (Invitrogen, CA, USA). 5 × 10^4 viable cells were added to each well of a 96-well tissue culture plate and incubated overnight at 37 °C under 5% CO2 in a humidified incubator to allow cells to attach to wells.
(§2) Cell viability was measured using the WST-1 assay (Roche Diagnostics GmbH, Mannheim, Germany) as previously described by Ngamwongsatit et al., 2008. Cells were plated in 96-well cell culture plates at a concentration of 5 × 10^4 cells/well in 100 µL culture medium. After 24 h the cells were treated with increasing concentrations of ethanol extract (0–2 mg/mL), fractions (0–2 mg/mL) and purified compounds (0–250 µg/mL) for a further 24 h. The extracts, fractions and compounds were prepared in DMSO and then mixed with the culture medium. The final concentrations of the DMSO were less than 0.1%. Following 24 h treatment, 10 µL of cell proliferation reagent WST-1 was added and the plates were incubated for 4 h at 37 °C under 5% CO2 in a humidified incubator. The plates wereshakenfor 1 min on a shaker and the absorbance of the samples were measured at 450 nm (reference wavelength was 750 nm) on a micro-plate reader. The cell viability was calculated using the following formula: % Viability = ODtreated well − ODblank/ODuntreated well − ODblank(1) IC50 values were calculated using Prism Graph pad software. Triplicate experiments were conducted and the results expressed as mean ± SEM.

HT-29 cells = assay: WST-1 cytotoxicity assay, HT-29 cells; assay type: cell-based, human; conditions: for IC50: WST-1 assay, 24 h treatment; for SI HT-29: Selectivity Index = IC50(KMST-6)/IC50(HT-29)
Procedure: as §1, §2

HeLa cells = assay: WST-1 cytotoxicity assay, HeLa cells; assay type: cell-based, human; conditions: for IC50: WST-1 assay, 24 h treatment; for SI HeLa: Selectivity Index = IC50(KMST-6)/IC50(HeLa)
Procedure: as §1, §2

MCF-7 cells = assay: WST-1 cytotoxicity assay, MCF-7 cells; assay type: cell-based, human; conditions: for IC50: WST-1 assay, 24 h treatment; for SI MCF-7: Selectivity Index = IC50(KMST-6)/IC50(MCF-7)
Procedure: as §1, §2

[4] = E/Z isomer stability followed by 1H-NMR; assay type: physicochemical; conditions: 2–3 months under normal working conditions
Text: Triterpene esters containing the E-coumaric acid isomer have been reported from natural sources, while, the co-existence of E- and Z-coumaric acid esters of ursolic acid (compounds 2 and 3) in Plumeria obtusa of the same family has been reported once.

[5] = test system: acetyl CoA cholestryl acyl tranferase (ACAT); set-up: method as in PMID 10425145; conditions: cited from earlier work
[6] = Stability of the hydrolysed derivative in organic solvents; assay type: physicochemical; conditions: organic solvents such as methanol and chloroform
Text: Compound 4 was isolated as colourless needle-like crystals with molecular formula of C30H48O2 on the basis of TOF-ESI-MS m/z 441.3735[M+H]^+. […] The signal at δ 174.8 (C-2), 77.9 (C-3) in addition to oxygenated methylene protons at δ 3.79 and 4.08 (CH2-3) indicated the presence of a lactone group. […] The NMR data were assigned unambiguously from 2D NMR spectral analysis of compound 4 and its hydrolyzed product 5. The structure was finally established from X-ray diffraction studies. Figure 2 illustrates the perspective view of the molecule with its relative configuration. The compound was thus assigned as 2,3-seco-taraxer-14-en-2,3-lactone and given the name pycanocarpine. After alkaline hydrolysis, compound 4 produced the unstable derivative viz 2,3-seco-3-hydroxy-taraxer-14-en-3-oic acid (5) as an off-white amorphous powder. The TOF-ESI-MS indicated an m/z 459.3889 [M+H]^+. It was noticeable that the free carboxylic and hydroxyl groups would easily reform the lactone ring after a short time in organic solvents such as methanol and chloroform. The NMR data of 5 is similar to the parent compound 4 and is illustrated in Table 1. Minor changes were observed between 4 and 5 for carbons C-11, -23, -24, and -26. The stereochemistry of both compounds, especially ring A, may partially explain this. In 4 the carbonyl group is directed into the same plan similar to C-24, -26 and -11.

[7] = at the dosages used (0–250 µg/mL)

SMILES | E/Z isomerization of the isomers (1H-NMR) [4] | melting point | IC50 (KMST-6 cells; Homo sapiens, Fibroblast, 24 h) | IC50 (HT-29 cells; Homo sapiens, HT-29, 24 h) | SI HT-29 (HT-29 cells) | IC50 (HeLa cells; Homo sapiens, HeLa, 24 h) | SI HeLa (HeLa cells) | IC50 (MCF-7 cells; Homo sapiens, MCF7, 24 h) | SI MCF-7 (MCF-7 cells) | IC50 (KMST-6 cells) | IC50 (HT-29 cells) | IC50 (HeLa cells) | IC50 (MCF-7 cells) | cytotoxicity to non-cancerous cell line KMST-6 (in words) (KMST-6 cells) | also measured
C[C@H]1[C@H](C)CC[C@]2(C(=O)O)CC[C@]3(C)C(=CC[C@@H]4[C@@]5(C)CC[C@H](OC(=O)/C=C\c6ccc(O)cc6)C(C)(C)[C@@H]5CC[C@]43C)[C@H]12 (relative stereo) [cis-3-O-p-hydroxycinnamoyl ursolic acid] |  |  |  |  |  |  |  |  |  |  |  |  |  |  | GI50 [1]: ~20 µM; GI50 [2]: ~20 µM; GI50 [3]: ~20 µM
C[C@H]1[C@H](C)CC[C@]2(C(=O)O)CC[C@]3(C)C(=CC[C@@H]4[C@@]5(C)CC[C@H](O)C(C)(C)[C@@H]5CC[C@]43C)[C@H]12 [Compound 1, ursolic acid] |  |  | 100 µM | 10 µM | 10.0 | 10 µM | 10.0 | 20 µM | 5.0 |  |  |  |  |  | 
CC1CCC2(C(=O)O)CCC3(COC(=O)C=Cc4ccc(O)cc4)C(=CCC4C5(C)CCC(O)C(C)(C)C5CCC43C)C2C1C (stereo not shown) [Compound 2, 27-p-E-coumaroloxyursolic acid] | did not observe any such change |  |  |  | 1 |  | 2 |  | 1.7 | 100 µM | 100 µM | 50 µM | 60 µM |  | 
CC1(C)CCC2(C)CC=C3C(C)(CCC4C3(C)CCC3C(C)(C)COC(=O)CC34C)C2C1 (stereo not shown) [Compound 4, 2,3-seco-taraxer-14-en-2,3-lactone] |  | 246 to 249 °C | > 600 µM | > 600 µM |  | > 600 µM |  | 20 µM | >30 |  |  |  |  | non- cytotoxic | cytotoxicity on HT-29 cells (in words) (HT-29 cells; [7]): did not show cytotoxicity; cytotoxicity on HeLa cells (in words) (HeLa cells; [7]): did not show cytotoxicity

Now from value to compound, other results behind:

E/Z isomerization of the isomers (1H-NMR) [4] | melting point | SMILES | IC50 (KMST-6 cells; Homo sapiens, Fibroblast, 24 h) | IC50 (HT-29 cells; Homo sapiens, HT-29, 24 h) | SI HT-29 (HT-29 cells) | IC50 (HeLa cells; Homo sapiens, HeLa, 24 h) | SI HeLa (HeLa cells) | IC50 (MCF-7 cells; Homo sapiens, MCF7, 24 h) | SI MCF-7 (MCF-7 cells) | IC50 (KMST-6 cells) | IC50 (HT-29 cells) | IC50 (HeLa cells) | IC50 (MCF-7 cells) | cytotoxicity to non-cancerous cell line KMST-6 (in words) (KMST-6 cells) | also measured
did not observe any such change |  | CC1CCC2(C(=O)O)CCC3(COC(=O)C=Cc4ccc(O)cc4)C(=CCC4C5(C)CCC(O)C(C)(C)C5CCC43C)C2C1C (stereo not shown) [Compound 3, 27-p-Z-coumaroyloxyursolic acid] |  |  | 1.3 |  | 1.5 |  | 1.7 | 300 µM | 230 µM | 200 µM | 180 µM | non- cytotoxic | activity against ACAT (in words) [5]: potent activity
 | 237 to 241 °C | CC1(C)CC[C@]2(C)CC=C3[C@]4(C)CCC(C(C)(C)CO)[C@](C)(CC(=O)O)C4CC[C@@]3(C)C2C1 (stereo partly shown) [Compound 5, 2,3-seco-3-hydroxy-taraxer-14-en-3-oic acid] | 10 µM | 170 µM | 0.06 | 180 µM | 0.06 | 10 µM | 1 |  |  |  |  |  | stability (re-lactonisation) [6]: unstable
